One assay concerns the target Insulin receptor (Rattus norvegicus, UniProt P15127). The class given is cell membranes, Wistar, Liver, Membrane. Further: in other assays of this panel Not Active means under 50% inhibition at 10 µM.
The target in assay [1] is Sodium-dependent dopamine transporter (Homo sapiens, UniProt Q01959). As to the kind of experiment: DRUGMATRIX: Dopamine Transporter radioligand binding (ligand: [125I] RTI-55). Format: cell membranes, CHO-K1, Membrane. The settings on record: cho-k1; Not Active = under 50% inhibition at 10 µM.
Sodium-dependent dopamine transporter, sequence (Q01959 whole entry): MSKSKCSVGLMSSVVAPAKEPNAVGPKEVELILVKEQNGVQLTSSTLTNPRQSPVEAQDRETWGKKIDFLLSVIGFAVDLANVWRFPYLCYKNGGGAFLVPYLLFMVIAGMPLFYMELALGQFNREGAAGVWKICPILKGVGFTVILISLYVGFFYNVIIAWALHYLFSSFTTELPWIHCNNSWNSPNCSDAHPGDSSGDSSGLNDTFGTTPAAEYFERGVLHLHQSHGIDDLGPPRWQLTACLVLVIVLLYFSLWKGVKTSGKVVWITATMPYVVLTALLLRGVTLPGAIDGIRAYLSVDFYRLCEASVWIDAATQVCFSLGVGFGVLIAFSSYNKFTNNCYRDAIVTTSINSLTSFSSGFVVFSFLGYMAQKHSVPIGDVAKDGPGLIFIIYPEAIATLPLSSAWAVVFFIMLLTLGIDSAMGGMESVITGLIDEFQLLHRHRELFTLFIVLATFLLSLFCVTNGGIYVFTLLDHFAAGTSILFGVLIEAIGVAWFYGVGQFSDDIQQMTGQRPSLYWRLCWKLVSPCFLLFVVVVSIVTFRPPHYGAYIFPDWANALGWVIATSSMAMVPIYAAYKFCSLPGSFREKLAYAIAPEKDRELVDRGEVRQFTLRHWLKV
The next assay has as its target T1, Neutrophil elastase (Homo sapiens, UniProt P08246).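 Further: inhibition of neutrophil elastase enzyme activity, measured with a p-nitroanilide-linked peptide substrate; in other assays of this panel Not Active means under 50% inhibition at 10 µM.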
T1 sequence (P08246 whole entry): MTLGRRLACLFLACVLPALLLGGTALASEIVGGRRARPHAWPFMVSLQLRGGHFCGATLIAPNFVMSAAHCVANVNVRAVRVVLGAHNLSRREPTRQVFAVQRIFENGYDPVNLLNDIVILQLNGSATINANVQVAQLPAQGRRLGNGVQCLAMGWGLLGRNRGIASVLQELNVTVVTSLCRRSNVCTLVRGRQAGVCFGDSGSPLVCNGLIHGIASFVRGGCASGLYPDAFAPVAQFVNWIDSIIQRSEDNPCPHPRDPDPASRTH
Format: tissue-based.

Another assay concerns the target Melanocortin receptor 5 (Homo sapiens, UniProt P33032). Format: cell membranes, HEK293, Membrane. As to conditions: hek293. Further: in other assays of this panel Not Active means under 50% inhibition at 10 µM.
Another assay concerns the target Histamine H2 receptor (Homo sapiens, UniProt P25021). The class given is cell membranes, CHO-K1, Membrane. The settings on record: cho-k1. Further: in other assays of this panel Not Active means under 50% inhibition at 10 µM.
Assay [2] deals with 5-hydroxytryptamine receptor 1B (Rattus norvegicus, UniProt P28564). The class given is cell membranes, Wistar, Cerebral cortex, Membrane.
5-hydroxytryptamine receptor 1B, sequence (P28564 whole entry): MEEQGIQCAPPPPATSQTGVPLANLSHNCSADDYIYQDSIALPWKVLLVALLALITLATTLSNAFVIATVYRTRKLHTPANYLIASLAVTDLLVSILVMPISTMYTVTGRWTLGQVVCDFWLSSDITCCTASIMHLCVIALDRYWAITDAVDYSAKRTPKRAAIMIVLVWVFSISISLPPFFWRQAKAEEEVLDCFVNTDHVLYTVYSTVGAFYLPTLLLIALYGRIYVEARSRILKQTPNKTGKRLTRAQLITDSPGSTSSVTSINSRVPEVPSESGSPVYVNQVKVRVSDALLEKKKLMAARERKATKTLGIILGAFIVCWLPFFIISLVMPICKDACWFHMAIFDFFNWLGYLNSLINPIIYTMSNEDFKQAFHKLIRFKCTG
A short description of assay [3]: DRUGMATRIX: Sigma2 radioligand binding (ligand: [3H] Ifenprodil). As to conditions: Not Active = under 50% inhibition at 10 µM. Format: cell membranes, Rattus norvegicus, Wistar, Brain, Membrane.
In assay [4] the target is Receptor tyrosine-protein kinase erbB-2 (Homo sapiens, UniProt P04626). The assay is described as follows: biochemical. Format: cell-based, Insect cells. The settings on record: insect cells.
Receptor tyrosine-protein kinase erbB-2, sequence (P04626 whole entry): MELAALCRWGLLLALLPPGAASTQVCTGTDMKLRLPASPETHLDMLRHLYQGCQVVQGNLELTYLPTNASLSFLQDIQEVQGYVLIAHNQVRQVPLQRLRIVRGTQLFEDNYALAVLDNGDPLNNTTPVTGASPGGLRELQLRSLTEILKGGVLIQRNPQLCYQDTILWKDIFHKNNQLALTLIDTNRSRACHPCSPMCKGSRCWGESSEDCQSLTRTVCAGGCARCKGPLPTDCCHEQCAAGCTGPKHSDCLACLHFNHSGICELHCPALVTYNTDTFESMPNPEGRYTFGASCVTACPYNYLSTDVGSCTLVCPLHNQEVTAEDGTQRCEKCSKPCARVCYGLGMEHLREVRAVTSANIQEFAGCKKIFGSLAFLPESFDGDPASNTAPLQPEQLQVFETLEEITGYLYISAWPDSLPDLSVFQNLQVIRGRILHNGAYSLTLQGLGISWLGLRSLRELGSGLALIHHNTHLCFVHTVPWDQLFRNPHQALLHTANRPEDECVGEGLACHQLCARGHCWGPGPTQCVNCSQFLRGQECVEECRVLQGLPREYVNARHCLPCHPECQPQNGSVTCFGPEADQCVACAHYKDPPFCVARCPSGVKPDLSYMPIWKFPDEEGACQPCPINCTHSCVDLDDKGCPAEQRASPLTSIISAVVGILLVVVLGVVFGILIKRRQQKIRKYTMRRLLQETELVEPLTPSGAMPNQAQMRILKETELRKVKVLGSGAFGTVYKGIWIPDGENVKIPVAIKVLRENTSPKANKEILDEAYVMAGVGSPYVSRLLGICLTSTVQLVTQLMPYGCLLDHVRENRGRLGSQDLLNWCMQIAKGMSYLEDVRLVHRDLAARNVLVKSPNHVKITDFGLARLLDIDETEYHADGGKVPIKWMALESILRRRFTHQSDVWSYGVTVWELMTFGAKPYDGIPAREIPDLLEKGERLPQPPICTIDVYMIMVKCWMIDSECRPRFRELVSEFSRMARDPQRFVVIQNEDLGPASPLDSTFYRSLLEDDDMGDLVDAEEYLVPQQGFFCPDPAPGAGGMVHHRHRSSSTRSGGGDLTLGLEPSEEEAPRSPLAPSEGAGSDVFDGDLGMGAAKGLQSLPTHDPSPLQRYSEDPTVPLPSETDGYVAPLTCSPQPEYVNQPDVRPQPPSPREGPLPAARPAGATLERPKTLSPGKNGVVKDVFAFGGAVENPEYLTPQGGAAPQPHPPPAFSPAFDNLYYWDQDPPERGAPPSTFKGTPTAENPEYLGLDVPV
Assay [5] addresses T2, Muscarinic acetylcholine receptor M4 (Homo sapiens, UniProt P08173).
T2 sequence (P08173 whole entry): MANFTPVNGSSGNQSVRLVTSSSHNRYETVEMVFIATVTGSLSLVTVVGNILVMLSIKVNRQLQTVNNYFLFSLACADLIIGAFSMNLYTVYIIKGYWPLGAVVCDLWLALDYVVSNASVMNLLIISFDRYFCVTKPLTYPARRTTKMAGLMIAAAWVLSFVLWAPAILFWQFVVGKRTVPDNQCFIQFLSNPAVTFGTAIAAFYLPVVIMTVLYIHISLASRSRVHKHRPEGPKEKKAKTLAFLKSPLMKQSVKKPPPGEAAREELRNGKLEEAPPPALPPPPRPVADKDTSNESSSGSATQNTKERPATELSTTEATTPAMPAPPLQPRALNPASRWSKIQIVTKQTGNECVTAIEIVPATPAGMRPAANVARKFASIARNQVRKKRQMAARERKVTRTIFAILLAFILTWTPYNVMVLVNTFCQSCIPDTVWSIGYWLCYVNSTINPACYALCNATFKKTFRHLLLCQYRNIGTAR
Format: cell membranes, CHO-K1, Membrane. As to conditions: cho-k1.

For the next assay, the target named is Melanocortin receptor 3 (Homo sapiens, UniProt P41968). The class given is cell membranes, Membrane. As to conditions: hek293. Further: in other assays of this panel Not Active means under 50% inhibition at 10 µM.
Melanocortin receptor 3, sequence (P41968 whole entry): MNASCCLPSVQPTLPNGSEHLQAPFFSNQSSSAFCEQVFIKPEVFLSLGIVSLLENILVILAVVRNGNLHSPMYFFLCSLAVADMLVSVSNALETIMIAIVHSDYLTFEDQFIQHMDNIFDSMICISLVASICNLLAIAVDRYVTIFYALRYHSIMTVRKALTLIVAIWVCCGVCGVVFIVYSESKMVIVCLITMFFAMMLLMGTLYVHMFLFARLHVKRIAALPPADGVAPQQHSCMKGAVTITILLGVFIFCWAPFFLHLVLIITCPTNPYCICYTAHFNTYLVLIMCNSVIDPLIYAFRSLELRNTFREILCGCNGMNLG
Assay [6] is described as follows: DRUGMATRIX: GABAA, Flunitrazepam, Central radioligand binding (ligand: [3H] Flunitrazepam). Format: cell membranes, Rattus norvegicus, Wistar, Brain, Membrane. As to conditions: Not Active = under 50% inhibition at 10 µM.
Assay [7] can be described thus: DRUGMATRIX: Leukotriene, BLT (LTB4) radioligand binding (ligand: [3H]LTB4). The class given is cell membranes, Membrane. As to conditions: u-937; Not Active = under 50% inhibition at 10 µM.
Assay [8] concerns the target T3, Muscarinic acetylcholine receptor M5 (Homo sapiens, UniProt P08912). Further: in other assays of this panel Not Active means under 50% inhibition at 10 µM.
T3 sequence (P08912 whole entry): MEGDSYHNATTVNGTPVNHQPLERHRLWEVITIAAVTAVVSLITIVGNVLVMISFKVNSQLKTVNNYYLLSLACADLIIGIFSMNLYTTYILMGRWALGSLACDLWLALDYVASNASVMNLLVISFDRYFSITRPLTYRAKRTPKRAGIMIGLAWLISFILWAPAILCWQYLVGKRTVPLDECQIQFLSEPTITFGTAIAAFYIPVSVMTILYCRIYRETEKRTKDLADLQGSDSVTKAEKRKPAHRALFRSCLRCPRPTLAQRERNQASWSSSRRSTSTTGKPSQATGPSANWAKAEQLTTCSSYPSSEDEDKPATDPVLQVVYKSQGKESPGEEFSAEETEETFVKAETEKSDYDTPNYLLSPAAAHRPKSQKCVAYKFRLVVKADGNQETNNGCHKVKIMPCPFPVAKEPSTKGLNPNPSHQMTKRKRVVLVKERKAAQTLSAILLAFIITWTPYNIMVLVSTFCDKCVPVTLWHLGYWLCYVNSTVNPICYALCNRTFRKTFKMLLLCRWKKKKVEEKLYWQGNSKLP
The class given is cell membranes, CHO-K1, Membrane. As to conditions: cho-k1.

The next assay has as its target T4, Caspase-1 (Homo sapiens, UniProt P29466).
T4 sequence (P29466 whole entry): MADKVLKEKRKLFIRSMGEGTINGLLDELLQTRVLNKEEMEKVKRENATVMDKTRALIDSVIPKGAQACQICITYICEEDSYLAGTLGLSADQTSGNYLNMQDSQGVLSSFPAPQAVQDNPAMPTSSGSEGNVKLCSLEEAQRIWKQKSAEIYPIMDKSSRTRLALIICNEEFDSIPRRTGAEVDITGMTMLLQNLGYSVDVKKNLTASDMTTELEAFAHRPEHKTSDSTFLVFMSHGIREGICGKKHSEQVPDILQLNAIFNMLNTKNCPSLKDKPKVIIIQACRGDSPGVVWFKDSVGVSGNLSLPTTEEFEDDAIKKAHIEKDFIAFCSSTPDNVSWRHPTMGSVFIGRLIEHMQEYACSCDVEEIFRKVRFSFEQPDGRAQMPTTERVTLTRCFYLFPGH
Details: species or system Escherichia coli.

Assay [9] has as its target Tyrosine-protein kinase Fyn (Homo sapiens, UniProt P06241). As to the kind of experiment: biochemical. As to conditions: insect cells. The class given is cell-based, Insect cells.

pIC50, pKi: −log10 of the molar value.

This is an account of results in ChEMBL document CHEMBL1909046, “DrugMatrix in vitro pharmacology data”.

The pIC50 is the negative decadic logarithm of the IC50, by convention in mol/L. As usually defined, the pKi is −log10 of the Ki, conventionally taken in molar units.

Tyrosine-protein kinase Fyn, sequence (P06241 whole entry): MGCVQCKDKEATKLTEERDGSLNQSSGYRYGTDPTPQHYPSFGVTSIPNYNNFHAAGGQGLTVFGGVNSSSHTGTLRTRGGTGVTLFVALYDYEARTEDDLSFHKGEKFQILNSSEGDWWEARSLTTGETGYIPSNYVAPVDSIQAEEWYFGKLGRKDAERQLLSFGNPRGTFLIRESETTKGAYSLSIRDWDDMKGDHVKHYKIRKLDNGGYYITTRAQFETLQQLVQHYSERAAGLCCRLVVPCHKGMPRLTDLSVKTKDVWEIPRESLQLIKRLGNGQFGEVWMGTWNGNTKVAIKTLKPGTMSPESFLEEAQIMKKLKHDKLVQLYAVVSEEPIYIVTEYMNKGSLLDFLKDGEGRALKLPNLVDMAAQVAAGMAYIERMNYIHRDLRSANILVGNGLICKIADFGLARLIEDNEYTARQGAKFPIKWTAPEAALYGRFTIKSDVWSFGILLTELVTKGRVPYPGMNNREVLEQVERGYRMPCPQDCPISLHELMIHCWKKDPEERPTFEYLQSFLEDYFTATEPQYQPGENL
Histamine H2 receptor, sequence (P25021 whole entry): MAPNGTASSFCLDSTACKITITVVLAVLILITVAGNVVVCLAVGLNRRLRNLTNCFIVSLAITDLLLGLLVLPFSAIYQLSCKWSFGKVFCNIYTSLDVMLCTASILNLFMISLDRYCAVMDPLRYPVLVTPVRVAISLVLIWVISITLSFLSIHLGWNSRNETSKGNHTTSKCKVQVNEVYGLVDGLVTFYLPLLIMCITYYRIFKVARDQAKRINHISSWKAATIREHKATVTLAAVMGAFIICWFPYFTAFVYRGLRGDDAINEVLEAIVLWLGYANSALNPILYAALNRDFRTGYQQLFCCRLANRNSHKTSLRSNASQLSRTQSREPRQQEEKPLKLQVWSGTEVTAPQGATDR
Melanocortin receptor 5, sequence (P33032 whole entry): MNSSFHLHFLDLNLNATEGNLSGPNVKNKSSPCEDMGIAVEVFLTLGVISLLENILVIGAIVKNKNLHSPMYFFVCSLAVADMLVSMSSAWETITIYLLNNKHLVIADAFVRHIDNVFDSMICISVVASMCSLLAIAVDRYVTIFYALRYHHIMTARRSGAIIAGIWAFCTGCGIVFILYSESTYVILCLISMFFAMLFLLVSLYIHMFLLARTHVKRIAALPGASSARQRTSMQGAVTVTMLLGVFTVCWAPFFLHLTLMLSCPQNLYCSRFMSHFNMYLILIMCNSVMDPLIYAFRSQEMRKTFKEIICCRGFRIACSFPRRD

For `NNc1ccccc1` [PHENYLHYDRAZINE], the IC50 entry (at Insulin receptor; in assay [1]; against Neutrophil elastase; against Melanocortin receptor 5; against Histamine H2 receptor; in [2]) was “Not Active” each time. The IC50 entry (in [3]; in assay [4]; in assay [5]; on Melanocortin receptor 3; in assay [6]; in [7]) was “Not Active” each time. The IC50 entry (in assay [8]; at Caspase-1; in [9]) was “Not Active” in each case. The Ki result in [3], in [6] and in assay [7] was “Not Active” throughout.

For `CC[C@H]1OC(=O)[C@H](C)[C@@H](O[C@H]2C[C@@](C)(OC)[C@@H](O)[C@H](C)O2)[C@H](C)[C@@H](O[C@@H]2O[C@H](C)C[C@H](N(C)C)[C@H]2O)[C@](C)(O)C[C@@H](C)/C(=N\OCOCCOC)[C@H](C)[C@@H](O)[C@]1(C)O` [ROXITHROMYCIN], the IC50 entry (against Insulin receptor; in assay [1]; against Neutrophil elastase; against Melanocortin receptor 5; against Histamine H2 receptor; in [2]) was “Not Active” each time. The IC50 entry (in [3]; in assay [4]; in assay [5]; against Melanocortin receptor 3; in assay [6]; in assay [7]) was “Not Active” in each case. For the same molecule, the IC50 entry (in assay [8]; at Caspase-1; in [9]) was “Not Active” in each case. Moreover, the Ki result in assay [3], in [6] and in [7] was “Not Active” in each case.

For `Nc1ccc(S(=O)(=O)Nc2ccnn2-c2ccccc2)cc1` [SULFAPHENAZOLE], the IC50 result (on Insulin receptor; in [1]; at Neutrophil elastase; against Melanocortin receptor 5; against Histamine H2 receptor; in assay [2]) was “Not Active” each time. Besides, the IC50 result (in [3]; in assay [4]; in assay [5]; on Melanocortin receptor 3; in [6]; in [7]) was “Not Active” in each case. The IC50 result (in [8]; against Caspase-1; in [9]) was “Not Active” each time. For the same molecule, the Ki result in assay [3], in assay [6] and in assay [7] was “Not Active” in each case.

Regarding `CCOC(=O)[C@H](CCc1ccccc1)N[C@@H](C)C(=O)N1[C@H](C(=O)O)C[C@@H]2CCC[C@@H]21`, the IC50 entry (at Insulin receptor; in [1]; against Neutrophil elastase; against Melanocortin receptor 5; at Histamine H2 receptor; in [2]) was “Not Active” throughout. For the same molecule, the IC50 result (in assay [3]; in assay [4]; in [5]; against Melanocortin receptor 3; in assay [6]; in [7]) was “Not Active” in each case. Also, the IC50 entry (in assay [8]; on Caspase-1; in assay [9]) was “Not Active” throughout. In addition, the Ki result in assay [3], in [6] and in assay [7] was “Not Active” in each case.

In the case of `NCCCC[C@H](N[C@@H](CCc1ccccc1)C(=O)O)C(=O)N1CCC[C@H]1C(=O)O` [LISINOPRIL ANHYDROUS], the IC50 entry (against Insulin receptor; in assay [1]; against Neutrophil elastase; against Melanocortin receptor 5; against Histamine H2 receptor; in [2]) was “Not Active” each time. Besides, the IC50 entry (in assay [3]; in assay [4]; in [5]; on Melanocortin receptor 3; in assay [6]; in assay [7]) was “Not Active” throughout. The IC50 entry (in [8]; against Caspase-1; in [9]) was “Not Active” in each case. Further, the Ki result in assay [3], in assay [6] and in assay [7] was “Not Active” each time.

Take `Cc1ccc(C(=O)C(C)CN2CCCCC2)cc1` (stereo not drawn) [TOLPERISONE]: the IC50 entry (against Insulin receptor; in [1]; at Neutrophil elastase; at Melanocortin receptor 5; against Histamine H2 receptor; in assay [2]) was “Not Active” each time. Besides, the IC50 result (in assay [4]; in assay [5]; at Melanocortin receptor 3; in assay [6]; in assay [7]; in assay [8]) was “Not Active” each time. The IC50 entry (at Caspase-1; in assay [9]) was “Not Active” throughout. In addition, the negative logarithm of the IC50 (pIC50) in assay [3] (read-out: IC50) was 5.47. In addition, in [3] (read-out: Ki), the pKi is 5.68. The Ki entry in [6] and in [7] was “Not Active” in each case.
